Laboratory results taken from EPA's ToxRefDB 2.

Legend:
rabbit = conditions: Prenatal developmental toxicity study, new zealand white, Oral, Gavage/Intubation, dose end: 18 GD
dog [1] = conditions: Subchronic oral toxicity in nonrodent, beagle, Capsule, dose end: 90 day, group: systemic
rat [2] = conditions: Subchronic oral toxicity in rodents, fischer, [Not Specified], dose end: 90 day, group: systemic
rat [3] = conditions: Combined chronic toxicity/carcinogenicity, fischer, Oral, Feed, dose end: 104 week, group: systemic
mouse [4] = conditions: Subchronic oral toxicity in rodents, cd1, Feed, dose end: 90 day, group: systemic
rat [5] = conditions: Prenatal developmental toxicity study, sprague dawley, Oral, Gavage/Intubation, dose end: 17 GD
dog [6] = conditions: Chronic toxicity, beagle, Oral, Capsule, dose end: 52 week, group: systemic
mouse [7] = conditions: Carcinogenicity, cd1, Oral, Feed, dose end: 80 week, group: systemic
[8] = group: developmental, developmental / developmental malformation / bone / full supernumerary
[9] = group: maternal, reproductive / reproductive performance / resorptions / resorptions + systemic / in life observation / body weight / body weight gain + …
[10] = systemic / in life observation / body weight / body weight gain + systemic / in life observation / food consumption / food efficiency
[11] = systemic / in life observation / body weight / body weight gain + systemic / in life observation / food consumption / food efficiency + …
[12] = systemic / hematology / blood clotting / blood clotting - activated partial thromboplastin time + systemic / hematology / blood clotting / …
[13] = systemic / urinalysis / appearance and color / appearance and color + systemic / pathology microscopic / pancreas / proliferation
[14] = systemic / clinical chemistry / albumin / albumin + systemic / hematology / eosinophils / eosinophils + systemic / hematology / neutrophils…
[15] = systemic / hematology / eosinophils / eosinophils + systemic / hematology / neutrophils / neutrophils + systemic / organ weight / liver / …
[16] = group: developmental, developmental / developmental malformation / bone / misshapen + developmental / developmental malformation / bone / supernumerary + …
[17] = group: maternal, systemic / in life observation / clinical signs / general pallor + systemic / in life observation / clinical signs / piloerection + systemic…
[18] = systemic / pathology gross / gallbladder / discolored + systemic / pathology microscopic / liver / hemosiderin laden macrophages
[19] = systemic / clinical chemistry / alanine aminotransferase (alt/sgpt) / alanine aminotransferase (alt/sgpt) + systemic / clinical chemistry / …

**Q.** What does the source list for `CCCCCCCCCCCCC1=C(OC(C)=O)C(=O)c2ccccc2C1=O` [Acequinocyl]?
**A.** LEL (rabbit; [8]): 120 mg/kg/day; LOAEL (rabbit; [8]): 120 mg/kg/day; NEL (rabbit; [8]): 60 mg/kg/day; NOAEL (rabbit; [8]): 60 mg/kg/day; LEL (rabbit; [9]): 120 mg/kg/day; LOAEL (rabbit; [9]): 120 mg/kg/day; NEL (rabbit; [9]): 60 mg/kg/day; NOAEL (rabbit; [9]): 60 mg/kg/day; LOAEL (dog [1]; [10]): 40 mg/kg/day; NOAEL (dog [1]; [10]): < 40 mg/kg/day; LEL (dog [1]; [11]): 40 mg/kg/day; NEL (dog [1]; [11]): < 40 mg/kg/day; LEL (rat [2]; systemic / clinical chemistry / gamma glutamyl transpeptides (gtp) / gamma glutamyl transpeptides (gtp) + systemic / urinalysis / appearance…): 30.4 mg/kg/day; LOAEL (rat [2]; [12]): 120 mg/kg/day; NEL (rat [2]; [12]): 7.6 mg/kg/day; NOAEL (rat [2]; [12]): 30.4 mg/kg/day; LOAEL (rat [3]; systemic / pathology gross / eye / enlarged): 9.02 mg/kg/day; NOAEL (rat [3]; systemic / pathology gross / eye / enlarged + systemic / in life observation / body weight / body weight + systemic / in life observation / …): 2.25 mg/kg/day; LEL (rat [3]; [13]): 2.92 mg/kg/day; NEL (rat [3]; [13]): < 2.92 mg/kg/day; LOAEL (mouse [4]; [14]): 81 mg/kg/day; NOAEL (mouse [4]; [14]): 16 mg/kg/day; LEL (mouse [4]; [15]): 16 mg/kg/day; NEL (mouse [4]; [15]): < 16 mg/kg/day; LEL (rat [5]; [16]): 750 mg/kg/day; LOAEL (rat [5]; [16]): 750 mg/kg/day; NEL (rat [5]; [16]): 500 mg/kg/day; NOAEL (rat [5]; [16]): 500 mg/kg/day; LEL (rat [5]; [17]): 500 mg/kg/day; LOAEL (rat [5]; [17]): 500 mg/kg/day; NEL (rat [5]; [17]): 150 mg/kg/day; NOAEL (rat [5]; [17]): 150 mg/kg/day; LOAEL (dog [6]; systemic / hematology / platelet / platelet + systemic / hematology / reticulocyte / reticulocyte): 20 mg/kg/day; NOAEL (dog [6]; systemic / hematology / platelet / platelet + systemic / hematology / reticulocyte / reticulocyte + systemic / clinical chemistry / albumin…): 5 mg/kg/day; LEL (dog [6]; [18]): 5 mg/kg/day; NEL (dog [6]; [18]): < 5 mg/kg/day; LEL (mouse [7]; [19]): 2.7 mg/kg/day; NEL (mouse [7]; [19]): < 2.7 mg/kg/day; NOAEL (mouse [7]; [19]): 7 mg/kg/day; LOAEL (mouse [7]; systemic / pathology microscopic / liver / fatty change + systemic / pathology microscopic / liver / vacuolization): 20.3 mg/kg/day
